In test [1] the target is T1, Pim-2 stably transfected into the U2OS human osteogenic sarcoma line (Homo sapiens, UniProt Q9P1W9).
T1 construct: expressed in transfected cells; host or cells: U2OS human osteogenic sarcoma line
Briefly: Pim cell assay, phospho-BAD normalized against total BAD, U2OS stably transfected with Pim-2. Also: high dose 31.6 µM. Type of test: cell-based. Conditions: read-out: Pim2_Cell_IC50. The essentials: (§1)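 Read-out is phospho-BAD relative to total BAD, by MSD electrochemiluminescence on lysates, expressed as % phosphoprotein = (2×phospho)/(phospho+total)×100. Engineered U2OS lines carrying stably transfected Pim-1 or Pim-2 received 10-point compound dilutions at 0.3% final DMSO after overnight culture at 37 °C; DMSO-only wells served as high control.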

Test [2] deals with T2, Pim-1 stably transfected into the U2OS human osteogenic sarcoma line (Homo sapiens, UniProt P11309).
T2 construct: expressed in transfected cells; host or cells: U2OS human osteogenic sarcoma line
Briefly: Pim cell assay, phospho-BAD normalized against total BAD, U2OS stably transfected with Pim-1. Format: cell-based. Conditions: read-out: Pim1_Cell_IC50. The method in brief:
as §1

Test [3] deals with T3, full length recombinant Pim-1 protein (Homo sapiens, UniProt P11309).
T3 construct: by full length recombinant Pim-1, Pim-2, or Pim-3 protein; hexahistidine tag followed by a thrombin cleavage site (N); made in house; host or cells: Sf9 (baculovirus) or E. coli (pET28)
As to the kind of experiment: Pim-1 enzyme assay (HTRF, phosphorylation of biotinylated-BAD (S112) peptide). Format: biochemical. The settings on record: enzyme assay, Pim-1; read-out: Pim_1_IC50. The method in brief:
(§2)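 HTRF readout (europium anti-pBAD S112 antibody, streptavidin-APC) of biotin-BAD peptide phosphorylation by recombinant full-length Pim-1 or Pim-2, buffer 60 mM Hepes pH 7.0, 2 mM DTT, 0.05% BSA. Enzymes were His6-tagged, from baculovirus/Sf9 or E. coli.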
Background: TR-FRET usually uses a lanthanide donor and a delayed reading to cut background.

In test [4] the target is T4, full length recombinant Pim-3 protein (Homo sapiens, UniProt Q86V86).
T4 construct: by full length recombinant Pim-1, Pim-2, or Pim-3 protein; purchased Millipore (UK)
Briefly: Pim-3 enzyme assay (HTRF, phosphorylation of biotinylated-BAD (S112) peptide). Format: biochemical. Conditions: read-out: Pim3 IC50. The method in brief:
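HTRF read-out, streptavidin-APC plus Eu-labelled anti-phospho-BAD (S112) antibody, measures BAD peptide phosphorylation by full-length recombinant Pim-3. Buffer: 60 mM Hepes pH 7.0, 2 mM DTT, 0.05% BSA; EDTA (3 mM) stop. Percent of control per well, IC50 by 4-parameter logistic fit.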

For test [5], the target named is T5, full length recombinant Pim-2 protein (Homo sapiens, UniProt Q9P1W9).
T5 construct: by full length recombinant Pim-1, Pim-2, or Pim-3 protein; hexahistidine tag followed by a thrombin cleavage site (N); made in house; host or cells: Sf9 (baculovirus) or E. coli (pET28)
As to the kind of experiment: Pim-2 enzyme assay (HTRF, phosphorylation of biotinylated-BAD (S112) peptide). Format: biochemical. Conditions: enzyme assay, Pim-2; read-out: Pim2_IC50. The method in brief: as §2

Where [6] appears, read: U2OS cells stably transfected with Pim-2, phospho-BAD, high dose […].
The mark [7] stands for this setting: U2OS cells stably transfected with Pim-1, phospho-BAD, high dose […].

Molecules are shown by their SMILES. Read-outs that look alike come from different tables or passages of the source.

T3 sequence (P11309 whole entry): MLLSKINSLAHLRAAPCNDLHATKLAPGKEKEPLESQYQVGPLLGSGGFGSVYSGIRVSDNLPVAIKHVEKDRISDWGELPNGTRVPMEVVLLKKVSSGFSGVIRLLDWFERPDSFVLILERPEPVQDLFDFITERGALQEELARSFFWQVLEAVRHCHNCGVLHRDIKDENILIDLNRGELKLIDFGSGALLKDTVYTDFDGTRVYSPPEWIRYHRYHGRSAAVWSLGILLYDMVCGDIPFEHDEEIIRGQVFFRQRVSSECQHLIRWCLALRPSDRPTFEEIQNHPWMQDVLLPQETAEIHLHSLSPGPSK
T2 sequence (P11309 whole entry): as above
T1 sequence (Q9P1W9 whole entry): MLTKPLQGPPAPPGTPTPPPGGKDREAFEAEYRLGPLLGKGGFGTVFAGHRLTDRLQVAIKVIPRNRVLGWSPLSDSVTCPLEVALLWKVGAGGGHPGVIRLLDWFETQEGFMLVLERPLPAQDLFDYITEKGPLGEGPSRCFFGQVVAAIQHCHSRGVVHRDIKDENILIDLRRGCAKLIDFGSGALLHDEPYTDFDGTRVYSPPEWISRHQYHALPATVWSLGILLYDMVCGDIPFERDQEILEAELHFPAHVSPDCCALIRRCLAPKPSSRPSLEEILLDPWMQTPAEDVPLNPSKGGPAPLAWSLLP
T5 sequence (Q9P1W9 whole entry): as above

For `NC1CCN(c2cncc(-c3n[nH]c4ccc(-c5ccc6ncsc6c5)cc34)n2)CC1` [Example 52, 1-(6-(5-(1,3-benzothiazol-6-yl)-1H-indazol-3-yl)-2-pyrazinyl)-4-piperidinamine], the IC50 was 9.5 µM in test [1] (setting [6]); 0.237 µM in test [2] (setting [7]); 0.004 µM in test [3]; 0.001 µM in test [4]; 0.024 µM in test [5].
In the same order, the values of `CN(C)C(=O)c1ccc(F)c(-c2ccc3[nH]nc(-c4cncc(N5CCC(N)CC5)n4)c3c2)c1` [Example 40, 3-(3-(6-(4-amino-1-piperidinyl)-2-pyrazinyl)-1H-indazol-5-yl)-4-fluoro-N,N-dimethylbenzamide] are 7.06 µM, 2.37 µM, 0.024 µM, 0.016 µM and 0.013 µM.
The matching figures for `CS(=O)(=O)c1cccc(-c2ccc3[nH]nc(-c4cncc(N5CCC(N)CC5)n4)c3c2)c1` [Example 76, 1-(6-(5-(3-(methylsulfonyl)phenyl)-1H-indazol-3-yl)-2-pyrazinyl)-4-piperidinamine]: more than 31.6 µM, 2.74 µM, 0.016 µM, 0.005 µM and 0.187 µM.
The matching figures for `NC1CCN(c2cncc(-c3n[nH]c4ccc(-c5ccccc5)cc34)n2)CC1` [Example 75, 1-(6-(5-phenyl-1H-indazol-3-yl)-2-pyrazinyl)-4-piperidinamine]: more than 31.6 µM, 0.48 µM, 0.007 µM, 0.003 µM and 0.049 µM.
For the compound `CN1C(=O)Cc2cc(-c3ccc4[nH]nc(-c5cncc(N6CCC(N)CC6)n5)c4c3)ccc21` [Example 51, 5-(3-(6-(4-amino-1-piperidinyl)-2-pyrazinyl)-1H-indazol-5-yl)-1-methyl-1,3-dihydro-2H-indol-2-one], the IC50 was more than 31.6 µM in test [1] (setting [6]); 1.46 µM in test [2] (setting [7]); 0.013 µM in test [3]; 0.009 µM in test [4]; 0.087 µM in test [5].
In the case of `CN1CCOc2cc(-c3ccc4[nH]nc(-c5cncc(O[C@@H]6CCCNC6)n5)c4c3)cnc21` [Example 130, 4-methyl-7-(3-(6-((3R)-3-piperidinyloxy)-2-pyrazinyl)-1H-indazol-5-yl)-3,4-dihydro-2H-pyrido[3,2-b][1,4]oxazine], the IC50 in test [1] (setting [6]) was 9.24 µM; in test [2] (setting [7]) it was 0.208 µM; in test [3], 0.007 µM; in test [4] it was 0.008 µM; in test [5], 0.025 µM.
`NC1CCN(c2cncc(-c3n[nH]c4ccc(-c5cc(C(=O)NC6CC6)ccc5F)cc34)n2)CC1` [Example 3, 3-(3-(6-(4-aminopiperidin-1-yl)pyrazin-2-yl)-1H-indazol-5-yl)-N-cyclopropyl-4-fluorobenzamide]: the IC50 in test [1] (setting [6]) turned out to be 7.39 µM; in test [2] (setting [7]), 3.68 µM; in test [3] it was 0.008 µM; in test [4] it was 0.009 µM; in test [5], 0.013 µM.
As for `CCNC(=O)c1ccc(F)c(-c2ccc3[nH]nc(-c4cncc(N5CCC(N)CC5)n4)c3c2)c1` [Example 43, 3-(3-(6-(4-amino-1-piperidinyl)-2-pyrazinyl)-1H-indazol-5-yl)-N-ethyl-4-fluorobenzamide], the IC50 was 14.9 µM in test [1] (setting [6]); 2.52 µM in test [2] (setting [7]); 0.007 µM in test [3]; 0.003 µM in test [4]; 0.005 µM in test [5].
`NC1CCN(c2cncc(-c3n[nH]c4ccc(-c5cc(C(=O)NCc6ccccc6)ccc5F)cc34)n2)CC1` [Example 36, 3-(3-(6-(4-amino-1-piperidinyl)-2-pyrazinyl)-1H-indazol-5-yl)-N-benzyl-4-fluorobenzamide]: the IC50 in test [1] (setting [6]) came out at 6.61 µM; in test [2] (setting [7]), 2.06 µM; in test [3], 0.006 µM; in test [4], 0.002 µM; in test [5], 0.007 µM.
In the case of `NC1CCN(c2cncc(-c3n[nH]c4ccc(-c5cc(C(=O)N6CCOCC6)ccc5F)cc34)n2)CC1` [Example 42, 1-(6-(5-(2-fluoro-5-(4-morpholinylcarbonyl)phenyl)-1H-indazol-3-yl)-2-pyrazinyl)-4-piperidinamine], the IC50 worked out at 9.84 µM in test [1] (setting [6]); 2.8 µM in test [2] (setting [7]); 0.032 µM in test [3]; 0.02 µM in test [4]; 0.041 µM in test [5].
Take `c1cc2cc(-c3ccc4[nH]nc(-c5cncc(O[C@@H]6CCCNC6)n5)c4c3)cnc2[nH]1` [Example 121, 3-(6-((3R)-3-piperidinyloxy)-2-pyrazinyl)-5-(1H-pyrrolo[2,3-b]pyridin-5-yl)-1H-indazole]: the IC50 in test [1] (setting [6]) stood at 3.01 µM; in test [2] (setting [7]), 0.157 µM; in test [3], 0.003 µM; in test [4], 0.005 µM; in test [5], 0.023 µM.
The matching figures for `CCOc1cccc(-c2ccc3[nH]nc(-c4cncc(N5CCC(N)CC5)n4)c3c2)n1` [Example 65, 1-(6-(5-(6-ethoxy-2-pyridinyl)-1H-indazol-3-yl)-2-pyrazinyl)-4-piperidinamine]: more than 31.6 µM, 3.53 µM, 0.013 µM, 0.018 µM and 0.274 µM.
For `CC(C)Oc1cncc(-c2ccc3[nH]cc(-c4cncc(N5CCOCC5)n4)c3c2)n1` [Example 225, 5-(6-(1-methylethoxy)-2-pyrazinyl)-3-(6-(4-morpholinyl)-2-pyrazinyl)-1H-indole], the IC50 in test [1] is more than 31.6 µM; in test [2], 1.47 µM; in test [3], 0.077 µM; in test [4] it was 0.138 µM; in test [5], more than 3 µM.
Take `NC1CCN(c2cncc(-c3n[nH]c4ccc(-c5ccccc5Cl)cc34)n2)CC1` [Example 83, 1-(6-(5-(2-chlorophenyl)-1H-indazol-3-yl)-2-pyrazinyl)-4-piperidinamine]: the IC50 in test [1] (setting [6]) turned out to be 22.1 µM; in test [2] (setting [7]), 1.42 µM; in test [3], 0.01 µM; in test [4], 0.004 µM; in test [5], 0.034 µM.
Regarding `CCNc1cncc(-c2n[nH]c3ccc(-c4c(F)cccc4F)cc23)n1` [Example 180, 6-(5-(2,6-difluorophenyl)-1H-indazol-3-yl)-N-ethyl-2-pyrazinamine], the IC50 was more than 31.6 µM in test [1] (setting [6]); 2.13 µM in test [2] (setting [7]); 0.076 µM in test [3]; 0.081 µM in test [4]; 0.643 µM in test [5].
Regarding `Cn1ccc2cc(-c3ccc4[nH]nc(-c5cncc(N6CCC(N)CC6)n5)c4c3)ccc2c1=O` [Example 49, 6-(3-(6-(4-amino-1-piperidinyl)-2-pyrazinyl)-1H-indazol-5-yl)-2-methyl-1(2H)-isoquinolinone], the IC50 in test [1] (setting [6]) is more than 31.6 µM; in test [2] (setting [7]), 1.34 µM; in test [3], 0.007 µM; in test [4], 0.007 µM; in test [5], 0.072 µM.
`NC1CCN(c2cncc(-c3n[nH]c4ccc(-c5cccc(F)n5)cc34)n2)CC1` [Example 66, 1-(6-(5-(6-fluoro-2-pyridinyl)-1H-indazol-3-yl)-2-pyrazinyl)-4-piperidinamine]: the IC50 is 17.3 µM in test [1] (setting [6]); 0.401 µM in test [2] (setting [7]); 0.004 µM in test [3]; 0.002 µM in test [4]; 0.033 µM in test [5].
In the same order, the values of `Fc1cccc(F)c1-c1ccc2[nH]nc(-c3ccnc(O[C@@H]4CCCNC4)n3)c2c1` [Example 190, 5-(2,6-difluorophenyl)-3-(2-((3R)-3-piperidinyloxy)-4-pyrimidinyl)-1H-indazole] are 18.8 µM, 1.22 µM, 0.024 µM, 0.036 µM and 0.223 µM.
With `CCCCNC(=O)c1ccc(F)c(-c2ccc3[nH]nc(-c4cncc(N5CCC(N)CC5)n4)c3c2)c1` [Example 38, 3-(3-(6-(4-amino-1-piperidinyl)-2-pyrazinyl)-1H-indazol-5-yl)-N-butyl-4-fluorobenzamide], the IC50 in test [1] (setting [6]) was 4.74 µM; in test [2] (setting [7]) it was 1.21 µM; in test [3] it was 0.007 µM; in test [4] it was 0.003 µM; in test [5], 0.009 µM.
Consider `CC(C)c1ccnc(-c2ccc3[nH]nc(-c4cncc(O[C@@H]5CCCNC5)n4)c3c2)n1` [Example 126, 5-(4-(1-methylethyl)-2-pyrimidinyl)-3-(6-((3R)-3-piperidinyloxy)-2-pyrazinyl)-1H-indazole], for which the IC50 was more than 31.6 µM in test [1] (setting [6]); 0.563 µM in test [2] (setting [7]); 0.013 µM in test [3]; 0.006 µM in test [4]; 0.161 µM in test [5].
